MED data for eight compounds are collected here from ChEMBL document CHEMBL1150042, “The synthesis of BRL 49653 - a novel and potent antihyperglycaemic agent” (Bioorg Med Chem Lett, 1994).

For this assay, the species on record is Mus musculus. Nature of the assay: Minimum effective dose for anti-hyperglycaemic activity was determined in C57B1/6 ob/ob obese mouse. The class given is functional.
With `CN(CCOc1ccc(CC2SC(=O)NC2=O)cc1)c1nc2ccccc2o1` (stereo not drawn) [BRL-48482], the MED was determined as 3 uM.kg/diet.

With `CC1(COc2ccc(CC3SC(=O)NC3=O)cc2)CCCC(O)C1` (stereo not drawn), the MED is on record as 500 uM.kg/diet.

`O=C(NCCOc1ccc(CC2SC(=O)NC2=O)cc1)Nc1ccccc1` (stereo not drawn) showed an MED of 100 uM.kg/diet.

Regarding `O=C1NC(=O)C(Cc2ccc3c(c2)CC[C@H](Cc2ccccc2)O3)S1` (stereo partly drawn) [ENGLITAZONE], the MED was found to be 200 uM.kg/diet.

With `Cc1c(C)c2c(c(C)c1O)CCC(C)(COc1ccc(CC3SC(=O)NC3=O)cc1)O2` (stereo not drawn) [TROGLITAZONE], the MED came out at 600 uM.kg/diet.

`CN(CCOc1ccc(CC2SC(=O)NC2=O)cc1)c1ccccn1` (stereo not drawn) [ROSIGLITAZONE] displayed an MED of 3 µM/kg.

`CC1(COc2ccc(CC3SC(=O)NC3=O)cc2)CCCCC1` (stereo not drawn) [CIGLITAZONE] yielded an MED of 3000 uM.kg/diet.

`CCc1ccc(CCOc2ccc(CC3SC(=O)NC3=O)cc2)nc1` (stereo not drawn) [PIOGLITAZONE] had an MED of 200 uM.kg/diet.
